{"source": "patent US8501713B2", "about": "“Drug combinations for the treatment of duchenne muscular dystrophy” (Summit Corporation PLC, priority 2007, dated 2013)"}
{"system": "Utrophin A promoter linked to a luciferase reporter gene", "assay": "Luciferase reporter assay (murine H2K cells)", "assay_type": "cell-based", "details": "Mus musculus, H2K mdx, luciferase level relative to control; H2K/mdx/Utro A reporter cells; compound 10 μM final concentration; read-out: Activity", "outline": "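Immortalized mdx mouse H2K myoblasts stably carrying a ~5 kb utrophin A promoter–luciferase construct, kept at 33° C, 10% CO2. After 24 hrs plating, compound added at 10 μM final for 48 hrs; luciferase light output read after in-situ lysis.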", "units": {"activity at 10 µM": "%"}}
{"smiles": "CCCC(=O)Nc1ccc2oc(-c3ccc(C(F)(F)F)cc3)nc2c1", "note": "[Example 125, N-(2-(4-(trifluoromethyl)phenyl)benzo[d]oxazol-5-yl)butyramide]", "activity at 10 µM": "< 200"}
{"smiles": "CCCCC(=O)Nc1ccc2oc(-c3ccc(C(F)(F)F)cc3)nc2c1", "note": "[Example 126, N-(2-(4-(trifluoromethyl)phenyl)benzo[d]oxazol-5-yl)pentanamide]", "activity at 10 µM": "< 200"}
{"smiles": "CC(C)C(=O)Nc1ccc2oc(-c3ccc(C(F)(F)F)cc3)nc2c1", "note": "[Example 127, N-(2-(4-(trifluoromethyl)phenyl)benzo[d]oxazol-5-yl)isobutyramide]", "activity at 10 µM": "< 200"}
{"smiles": "O=C(Nc1ccc2oc(-c3ccc(C(F)(F)F)cc3)nc2c1)c1ccco1", "note": "[Example 128, N-(2-(4-(trifluoromethyl)phenyl)benzo[d]oxazol-5-yl)furan-2-carboxamide]", "activity at 10 µM": "< 200"}
{"smiles": "CC(C)(C)c1ccc2oc(-c3ccccc3)nc2c1", "note": "[Example 129, 5-tert-butyl-2-phenylbenzo[d]oxazole]", "activity at 10 µM": "> 401"}
{"smiles": "O=[N+]([O-])c1ccc2nc(-c3ccccc3)oc2c1", "note": "[Example 130, 6-nitro-2-phenylbenzo[d]oxazole]", "activity at 10 µM": "201 to 300"}
{"smiles": "CCN(CC)c1ccc(-c2nc3cc(Cl)ccc3o2)cc1", "note": "[Example 131, 4-(5-chlorobenzo[d]oxazol-2-yl)-N,N-diethylaniline]", "activity at 10 µM": "301 to 400"}
{"smiles": "CCN(CC)c1ccc(-c2nc3ccc(Cl)cc3o2)cc1", "note": "[Example 132, 4-(6-chlorobenzo[d]oxazol-2-yl)-N,N-diethylaniline]", "activity at 10 µM": "> 401"}
{"smiles": "Nc1ccc2[nH]c(-c3ccccc3O)nc2c1", "note": "[Example 133, 2-(5-amino-1H-benzo[d]imidazol-2-yl)phenol]", "activity at 10 µM": "< 200"}
{"smiles": "COc1ccc(-c2nc3cc(NC(=O)c4ccncc4)ccc3o2)cc1", "note": "[Example 134, N-(2-(4-methoxyphenyl)benzo[d]oxazol-5-yl)isonicotinamide]", "activity at 10 µM": "< 200"}
{"smiles": "COc1ccc(-c2nc3cc(NC(C)=O)ccc3o2)cc1", "note": "[Example 135, N-(2-(4-methoxyphenyl)benzo[d]oxazol-5-yl)acetamide]", "activity at 10 µM": "301 to 400"}
{"smiles": "CCC(=O)Nc1ccc2oc(-c3ccc(OC)cc3)nc2c1", "note": "[Example 136, N-(2-(4-methoxyphenyl)benzo[d]oxazol-5-yl)propionamide]", "activity at 10 µM": "301 to 400"}
{"smiles": "CCCC(=O)Nc1ccc2oc(-c3ccc(OC)cc3)nc2c1", "note": "[Example 137, N-(2-(4-methoxyphenyl)benzo[d]oxazol-5-yl)butyramide]", "activity at 10 µM": "201 to 300"}
{"smiles": "CCCCC(=O)Nc1ccc2oc(-c3ccc(OC)cc3)nc2c1", "note": "[Example 138, N-(2-(4-methoxyphenyl)benzo[d]oxazol-5-yl)pentanamide]", "activity at 10 µM": "< 200"}
{"smiles": "COc1ccc(-c2nc3cc(NC(=O)C(C)C)ccc3o2)cc1", "note": "[Example 139, N-(2-(4-methoxyphenyl)benzo[d]oxazol-5-yl)isobutyramide]", "activity at 10 µM": "201 to 300"}
{"smiles": "COc1ccc(-c2nc3cc(NC(=O)c4ccco4)ccc3o2)cc1", "note": "[Example 140, N-(2-(4-methoxyphenyl)benzo[d]oxazol-5-yl)furan-2-carboxamide]", "activity at 10 µM": "< 200"}
{"smiles": "COc1ccc(-c2nc3cc(NC(=O)c4cccs4)ccc3o2)cc1", "note": "[Example 141, N-(2-(4-methoxyphenyl)benzo[d]oxazol-5-yl)thiophene-2-carboxamide]", "activity at 10 µM": "< 200"}
{"smiles": "CCN(CC)c1ccc(-c2nc3cc(C(C)(C)C)ccc3o2)cc1", "note": "[Example 142, 4-(5-tert-butylbenzo[d]oxazol-2-yl)-N,N-diethylaniline]", "activity at 10 µM": "201 to 300"}
{"smiles": "CCN(CC)c1ccc(-c2nc3ccccc3o2)cc1", "note": "[Example 143, 4-(benzo[d]oxazol-2-yl)-N,N-diethylaniline]", "activity at 10 µM": "201 to 300"}
{"smiles": "CCN(CC)c1ccc(-c2nc3cc(S(=O)(=O)CC)ccc3o2)cc1", "note": "[Example 144, N,N-diethyl-4-(5-(ethylsulfonyl)benzo[d]oxazol-2-yl)aniline]", "activity at 10 µM": "< 200"}
{"smiles": "CCN(CC)c1ccc(-c2nc3cc(-c4ccccc4)ccc3o2)cc1", "note": "[Example 145, N,N-diethyl-4-(5-phenylbenzo[d]oxazol-2-yl)aniline]", "activity at 10 µM": "< 200"}
{"smiles": "CCN(CC)c1ccc(-c2nc3c(ccc4ccccc43)o2)cc1", "note": "[Example 146, N,N-diethyl-4-(naphtho[1,2-d]oxazol-2-yl)aniline]", "activity at 10 µM": "201 to 300"}
{"smiles": "c1ccc(-c2nc3ccccc3o2)nc1", "note": "[Example 147, 2-(pyridin-2-yl)benzo[d]oxazole]", "activity at 10 µM": "< 200"}
{"smiles": "CCC(=O)Nc1ccc2nn(-c3ccc(Cl)cc3)nc2c1", "note": "[Example 148, N-(2-(4-chlorophenyl)-2H-benzo[d][1,2,3]triazol-5-yl)propionamide]", "activity at 10 µM": "> 401"}
{"smiles": "Nc1ccc2oc(-c3ccc(N4CCCC4)cc3)nc2c1", "note": "[Example 149, 2-(4-(pyrrolidin-1-yl)phenyl)benzo[d]oxazol-5-amine]", "activity at 10 µM": "201 to 300"}
{"smiles": "Nc1ccc2oc(-c3ccc(N4CCCCC4)cc3)nc2c1", "note": "[Example 150, 2-(4-(piperidin-1-yl)phenyl)benzo[d]oxazol-5-amine]", "activity at 10 µM": "201 to 300"}
{"smiles": "CN1CCN(c2ccc(-c3nc4cc(N)ccc4o3)cc2)CC1", "note": "[Example 151, 2-(4-(4-methylpiperazin-1-yl)phenyl)benzo[d]oxazol-5-amine]", "activity at 10 µM": "201 to 300"}
{"smiles": "CCN(CC)c1ccc(-c2nc3cc(C(=O)O)ccc3o2)cc1", "note": "[Example 152, 2-(4-(diethylamino)phenyl)benzo[d]oxazole-5-carboxylic acid]", "activity at 10 µM": "< 200"}
{"smiles": "O=[N+]([O-])c1cnc2oc(-c3ccccc3)nc2c1", "note": "[Example 153, 6-nitro-2-phenyloxazolo[5,4-b]pyridine]", "activity at 10 µM": "< 200"}
{"smiles": "CCCc1nc2cc(N)ccc2o1", "note": "[Example 154, 2-propylbenzo[d]oxazol-5-amine]", "activity at 10 µM": "< 200"}
{"smiles": "Nc1ccc2nc(-c3ccccc3)oc2c1", "note": "[Example 155, 2-phenylbenzo[d]oxazol-6-amine]", "activity at 10 µM": "301 to 400"}
{"smiles": "c1ccc(CNc2ccc3oc(-c4ccccc4)nc3c2)cc1", "note": "[Example 156, N-benzyl-2-phenylbenzo[d]oxazol-5-amine]", "activity at 10 µM": "301 to 400"}
{"smiles": "Cc1ccc(-c2nc3cccnc3o2)cc1", "note": "[Example 157, 2-p-tolyloxazolo[5,4-b]pyridine]", "activity at 10 µM": "301 to 400"}
{"smiles": "Cc1ccc(-c2nc3ncccc3o2)cc1", "note": "[Example 158, 2-p-tolyloxazolo[4,5-b]pyridine]", "activity at 10 µM": "< 200"}
{"smiles": "Nc1ccc2oc(-c3ccc(N4CCOCC4)cc3)nc2c1", "note": "[Example 159, 2-(4-morpholinophenyl)benzo[d]oxazol-5-amine]", "activity at 10 µM": "< 200"}
{"smiles": "COCCC(=O)Nc1ccc2oc(-c3ccc(C)cc3)nc2c1", "note": "[Example 160, 3-methoxy-N-(2-p-tolylbenzo[d]oxazol-5-yl)propanamide]", "activity at 10 µM": "> 401"}
{"smiles": "Cc1ccc(-c2nc3cc(-c4ccccc4)ccc3o2)cc1", "note": "[Example 161, 5-phenyl-2-p-tolylbenzo[d]oxazole]", "activity at 10 µM": "301 to 400"}
{"smiles": "Clc1ccc(-c2nc3cc(-c4ccccc4)ccc3o2)cc1", "note": "[Example 162, 2-(4-chlorophenyl)-5-phenylbenzo[d]oxazole]", "activity at 10 µM": "< 200"}
{"smiles": "O=[N+]([O-])c1ccc2oc(C3CCCCC3)nc2c1", "note": "[Example 163, 2-cyclohexyl-5-nitrobenzo[d]oxazole]", "activity at 10 µM": "< 200"}
{"smiles": "O=[N+]([O-])c1ccc2nc(-c3ccc(Cl)cc3)[nH]c2c1", "note": "[Example 164, 2-(4-chlorophenyl)-6-nitro-1H-benzo[d]imidazole]", "activity at 10 µM": "201 to 300"}
